According to article PMC7822474, “Repurposing the McoTI-II Rigid Molecular Scaffold in to Inhibitor of ‘Papain Superfamily’ Cysteine Proteases” (Pharmaceuticals, 2020):
Where no end group is shown, it is not given here.

Key:
[1] = system: trypsin; conditions: cited from earlier work
Text: McoTI-II is a stable cyclic peptide found in seeds of the plant Momordica cochinchinensis. It belongs to the trypsin inhibitor subfamily of cyclotides and has been the most preferred framework for grafting and engineering novel biological activities. […] A range of substitutions in the trypsin inhibitory reactive site (loop 1) and the P1 residue have been used to develop a series of McoTI-I analogs with specificity towards alternate proteases with moderate affinity. […] Therefore, we expect that a modification involving a backbone cyclization would lead to further improvement in the e ...

[2] = system: trypsin; assay: Inhibition of trypsin by recombinant McoTI-II (ZFR-AMC substrate); assay type: biochemical
[3] = target: trypsin
[4] = system: papain; assay: Proteolytic activity assay, BSA digestion by papain on SDS-PAGE; assay type: biochemical; conditions: BSA 1.0 mg/mL, 0.1 M sodium acetate pH 5.5, 0.1% SDS, E:S 1:10, 40 °C, 8 min, preincubated with papain
Procedure: The protein substrate, BSA, at a concentration of 1.0 mg/mL in 0.1 M sodium acetate buffer (pH 5.5) containing 0.1% SDS was incubated with papain, papain preincubated with E-64, and papain preincubated with Mco-CPI protein. The papain enzyme used was pre-activated with 2 mM dithiothreitol. The ratio of enzyme to the substrate (E:S) was maintained at 1:10. The digestion was allowed to be carried at 40 °C for 8 min. This method was adapted from Zucker et al., 1985 [59]. The degradation products of each reaction were analysed on 12% SDS-PAGE gel.

[5] = system: papain; conditions: E-64 and its derivatives; cited from earlier work

McoTI-II: stable cyclic peptide found in seeds of the plant Momordica cochinchinensis (cyclo(SGSDGGVCPKILKKCRRDSDCPGACICRGNGYCG); disulfide (positions not given here); ends not checked; also: three disulfides, pairing not given here; UniProt P82409 1-34, looked up)
trypsin inhibition range (in words) ([1]; McoTI-II purified from plant sources or chemically synthesized as a cyclic molecule): sub-nM range | trypsin inhibitory activity (in words) ([1]; natural McoTI-II): potent (sub-nM)

McoTI-II recombinant protein: McoTI-II protein with tags, recombinantly expressed as starting control (SGSDGGVCPKILKKCRRDSDCPGACICRGNGYCG; ends and bridges not checked; also: with tags (recombinant); UniProt P82409 1-34, looked up)
% trypsin inhibition, concentration dependence (in words) ([2]; Supplementary Figure S6E): An increase in % trypsin inhibition | IC50 ([2]; ZFR-AMC substrate, 50 mM Tris-HCl pH 8.0, 50 mM NaCl, 5 mM CaCl2, three technical replicates, read-out: IC50 against trypsin): 2.12 µM

McoTI-II (Momordica cochinchinensis trypsin inhibitor-II), recombinant protein with tags (from UniProt P82409 1-34) (natural protein)
inhibition of trypsin activity on ZFR-AMC (fluorescence), 50 mM Tris-HCl pH 8.0, 50 mM NaCl, 5 mM CaCl2 [3]: 2.12 µM

CC(C)C[C@H](NC(=O)[C@H]1O[C@@H]1C(=O)O)C(=O)NCCCCN=C(N)N [E-64]
inhibition of papain proteolytic activity on BSA (in words) [4]: completely inhibit the proteolytic activity of papain with no digestion products observed on the gel | IC50 against papain (in words) [5]: nanomolar range
